# ChEMBL document CHEMBL1137703, “Predictive QSAR modeling of HIV reverse transcriptase inhibitor TIBO derivatives” (Eur J Med Chem, 2009)
# Biological target: Human immunodeficiency virus type 1 reverse transcriptase (Human immunodeficiency virus 1, UniProt Q72547)
# Assay: Inhibition of HIV1 reverse transcriptase
# Conditions: not given
row,Structure (SMILES),log(1/IC50)
1,CCCN1CCn2c(=S)[nH]c3cccc(c32)C1C (configuration not stated),5.61
2,CCCN1Cc2cccc3[nH]c(=O)n(c23)CC1C (configuration not stated),4.22
3,CC1CN(CC2CC2)Cc2cc(Cl)cc3[nH]c(=S)n1c23 (configuration not stated),5.66
4,CCCN1Cc2cccc3[nH]c(=S)n(c23)CC1C (configuration not stated),5.78

# Same assay, conditions: read-out: log(1/IC50) (converted)
row,Structure (SMILES),IC50
1,CCCN1Cc2cccc3[nH]c(=O)n(c23)C(C(C)C)C1 (configuration not stated),74100 nM
2,CCCN1CCn2c(=O)[nH]c3cccc(c32)C1C (configuration not stated),83200 nM
3,S=c1[nH]c2cccc3c2n1C(Cc1ccccc1)C(Cc1ccccc1)N(CC1CC1)C3 (configuration not stated),10000 nM
4,S=c1[nH]c2cc(Cl)cc3c2n1CCN1CCCCC31 (configuration not stated),2000 nM
5,C=C(C)N1Cc2cccc3[nH]c(=O)n(c23)C(C)C1 (configuration not stated),32400 nM
6,CC(C)=CN1Cc2cccc3[nH]c(=O)n(c23)C[C@@H]1C,3310 nM
7,CC(C)=CN1CCn2c(=S)[nH]c3ccc(Cl)c(c32)C1C (configuration not stated),12 nM
8,C=C(C)N1Cc2cccc3[nH]c(=O)n(c23)CC1(C)C,22900 nM
9,COc1ccc2c3c1[nH]c(=O)n3C[C@H](C)N(C=C(C)C)C2,6610 nM
10,CC(C)=CN1[C@@H](C)Cn2c(=O)[nH]c3cc(Cl)cc(c32)[C@@H]1C,5010 nM
11,CC(C)=CN1Cc2c(I)ccc3[nH]c(=O)n(c23)C[C@@H]1C,87.1 nM
12,CC(C)=CN1[C@H](C)Cn2c(=O)[nH]c3cc(Cl)cc(c32)[C@H]1C,229 nM
13,C#Cc1ccc2[nH]c(=O)n3c2c1CN(C=C(C)C)[C@@H](C)C3,437 nM
14,CC(C)=CN1Cc2ccc(Br)c3[nH]c(=S)n(c23)C[C@@H]1C,1070 nM
15,CC(C)=CN1Cc2c(C(N)=O)ccc3[nH]c(=O)n(c23)C[C@@H]1C,6350 nM
16,C=C(C)N1Cc2cccc3[nH]c(=O)n(c23)C(CCC)C1 (configuration not stated),47900 nM
17,CC(C)=CN1CCn2c(=O)[nH]c3cc(Cl)cc(c32)C1C (configuration not stated),162 nM
18,CC(C)=CN1Cc2c(C#N)ccc3[nH]c(=O)n(c23)C[C@@H]1C,1150 nM
19,C=C(C)N1Cc2cccc3[nH]c(=O)n(c23)CC1CC (configuration not stated),50100 nM
20,C=C(C)N1Cc2cccc3[nH]c(=O)n(c23)CC1C(C)C (configuration not stated),10000 nM
21,CC(C)=CN1Cc2cccc3[nH]c(=O)n(c23)CC1C(C)C (configuration not stated),10000 nM
22,COc1ccc2c3c1[nH]c(=S)n3C[C@H](C)N(C=C(C)C)C2,4680 nM

row,Structure (SMILES),IC50
1,CC(C)=CN1CCn2c(=S)[nH]c3cc(Cl)cc(c32)C1C (configuration not stated),22.9 nM
2,CC(C)=CN1Cc2c(Br)ccc3[nH]c(=O)n(c23)C[C@@H]1C,47.4 nM
3,COc1ccc2[nH]c(=S)n3c2c1CN(C=C(C)C)[C@@H](C)C3,34 nM
4,CC(C)=CN1CCn2c(=O)[nH]c3cccc(c32)C1,12600 nM
5,C=C(C)N1Cc2cccc3[nH]c(=O)n(c23)CC1C (configuration not stated),34700 nM
6,C=C(C)N1CCn2c(=O)[nH]c3cccc(c32)C1,46800 nM
7,C=C(CC)N1CCn2c(=O)[nH]c3cccc(c32)C1,37200 nM
8,CC(C)=CN1Cc2c(C)ccc3[nH]c(=O)n(c23)C[C@@H]1C,1000 nM
9,CC(C)=CN1CCn2c(=S)[nH]c3cccc(c32)C1C (configuration not stated),77.6 nM
10,C=C(C)N1Cc2cccc3[nH]c(=O)n(c23)C(C(C)C)C1 (configuration not stated),12600 nM
11,CC(C)=CN1CCn2c(=O)[nH]c3ccc(Cl)c(c32)C1C (configuration not stated),145 nM
12,CCCN1CCn2c(=O)[nH]c3cccc(c32)C1,89100 nM
13,CSc1ccc2[nH]c(=S)n3c2c1CN(C=C(C)C)[C@@H](C)C3,5 nM
14,CC(C)=CN1CCn2c(=S)[nH]c3ccc(Cl)c(c32)C1,45.7 nM
15,CC(C)=CN1CCn2c(=O)[nH]c3cccc(c32)C1C (configuration not stated),12000 nM
16,CC(C)=CN1C[C@H](C)n2c(=S)[nH]c3cccc(c32)[C@H]1C (relative stereo),25700 nM
17,CC(C)=CN1Cc2cccc3[nH]c(=S)n(c23)[C@@H](C)[C@@H]1C (relative stereo),14500 nM
18,CC(C)=CN1Cc2cccc3[nH]c(=O)n(c23)[C@@H](C)[C@H]1C (relative stereo),56200 nM
19,CC(C)=CN1[C@H](C)c2cccc3[nH]c(=S)n(c23)C[C@@H]1C (relative stereo),1150 nM
20,CC(C)=CN1[C@@H](C)Cn2c(=S)[nH]c3cccc(c32)[C@@H]1C (relative stereo),41.7 nM
21,CC(C)=CN1Cc2cccc3[nH]c(=S)n(c23)[C@@H](C)[C@H]1C (relative stereo),2240 nM

# Next, values leading:
row,IC50,Structure (SMILES)
1,60500 nM,C[C@H]1Cn2c(=O)[nH]c3cc(N)cc(c32)CN1CC1CC1
2,6650 nM,C[C@H]1Cn2c(=O)[nH]c3cc(N(C)C)cc(c32)CN1CC1CC1
3,33400 nM,C[C@H]1Cn2c(=O)[nH]c3cc([N+](=O)[O-])cc(c32)CN1CC1CC1
4,50100 nM,CCCN1Cc2cc(Cl)cc3[nH]c(=S)n(c23)C(=O)C1C (configuration not stated)
5,6650 nM,C[C@H]1Cn2c(=O)[nH]c3ccc(N(C)C)c(c32)CN1CC1CC1
6,70100 nM,C=CCN1Cc2cccc3[nH]c(=O)n(c23)C[C@@H]1C
7,29.5 nM,C#Cc1ccc2[nH]c(=S)n3c2c1CN(C=C(C)C)[C@@H](C)C3
8,3800 nM,C/C=C1/C[C@H]2Cn3c(=S)[nH]c4cc(Cl)cc(c43)CN2C1
9,182 nM,CC(C)=CN1Cc2cc(Cl)cc3[nH]c(=O)n(c23)C[C@@H]1C
10,33.9 nM,C[C@H]1Cn2c(=S)[nH]c3cc(Cl)cc(c32)CN1CC1CC1
11,479 nM,CC(C)=CN1[C@H](C)Cn2c(=S)[nH]c3cc(Cl)cc(c32)[C@H]1C
12,95.9 nM,CCOc1ccc2[nH]c(=S)n3c2c1CN(C=C(C)C)[C@@H](C)C3
13,162 nM,CC(C)=CN1CCn2c(=S)[nH]c3cc(Cl)cc(c32)C1
14,676 nM,C=C(C)N1Cc2cc(Cl)cc3[nH]c(=S)n(c23)C(C)C1 (configuration not stated)
15,26.3 nM,C=C(C)N1Cc2cccc3[nH]c(=S)n(c23)C[C@@H]1C
16,60.3 nM,C[C@H]1Cn2c(=S)[nH]c3cccc(c32)CN1CC1CC1
17,97.7 nM,CC(C)=CN1Cc2cccc3[nH]c(=S)n(c23)CC1C (configuration not stated)
18,44.2 nM,CC(C)=CN1Cc2cccc3[nH]c(=S)n(c23)C[C@@H]1C
19,3.01 nM,CC(C)=CN1Cc2c(Br)ccc3[nH]c(=S)n(c23)C[C@@H]1C
20,42.7 nM,CC(C)=CN1Cc2cc(Cl)cc3[nH]c(=S)n(c23)C[C@@H]1C
21,13.6 nM,CC(C)=CN1Cc2c(C)ccc3[nH]c(=S)n(c23)C[C@@H]1C
22,47.9 nM,CC(C)=CN1Cc2c(I)ccc3[nH]c(=S)n(c23)C[C@@H]1C
23,5.82 nM,CC(C)=CN1Cc2c(F)ccc3[nH]c(=S)n(c23)C[C@@H]1C
24,25.6 nM,CC(C)=CN1Cc2cc(Cl)c(Cl)c3[nH]c(=S)n(c23)C[C@@H]1C
25,5.01 nM,CC(C)=CN1Cc2c(Cl)ccc3[nH]c(=S)n(c23)C[C@@H]1C
26,56.2 nM,CC(C)=CN1Cc2c(C#N)ccc3[nH]c(=S)n(c23)C[C@@H]1C
27,25 nM,CC(C)=CN1Cc2cc(F)cc3[nH]c(=S)n(c23)C[C@@H]1C
28,186 nM,CC(C)=CN1Cc2c(C=O)ccc3[nH]c(=S)n(c23)C[C@@H]1C
29,2450 nM,C[C@H]1Cn2c(=S)[nH]c3cc([N+](=O)[O-])cc(c32)CN1CC1CC1
30,13500 nM,C[C@H]1[C@H](C)n2c(=S)[nH]c3cccc(c32)CN1CC1CC1 (relative stereo)
